This note sets out measurements from patent US9273058B2 (BRISTOL-MYERS SQUIBB COMPANY, priority 2013, dated 2016).

Read-outs that look alike come from different tables or passages of the source.

For one experiment, the target named is CK1δ (Homo sapiens, UniProt P48730). Description: CK1δ kinase assay (Caliper LabChip electrophoretic separation of fluoresceinated peptide substrate and product). The class given is biochemical. To be noted: 200 pM CK1δ, 50 μM ATP, 1.5 μM peptide, 22 hours at room temperature. The gist of the method:
(§1)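 Reactions ran 22 hours at room temperature and were stopped with EDTA. Phosphorylated product and unphosphorylated substrate were then separated electrophoretically. Compounds were tested at eleven concentrations, and IC50 values came from non-linear regression.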

The target in the next experiment is CK1ε (Homo sapiens, UniProt P49674). Put plainly: CK1ε kinase assay (Caliper LabChip electrophoretic separation of fluoresceinated peptide substrate and product). The class given is biochemical. To be noted: 200 pM CK1ε, 50 μM ATP, 1.5 μM peptide, 22 hours at room temperature. An outline of the steps:
as §1

Chain of CK1ε (P49674 whole entry): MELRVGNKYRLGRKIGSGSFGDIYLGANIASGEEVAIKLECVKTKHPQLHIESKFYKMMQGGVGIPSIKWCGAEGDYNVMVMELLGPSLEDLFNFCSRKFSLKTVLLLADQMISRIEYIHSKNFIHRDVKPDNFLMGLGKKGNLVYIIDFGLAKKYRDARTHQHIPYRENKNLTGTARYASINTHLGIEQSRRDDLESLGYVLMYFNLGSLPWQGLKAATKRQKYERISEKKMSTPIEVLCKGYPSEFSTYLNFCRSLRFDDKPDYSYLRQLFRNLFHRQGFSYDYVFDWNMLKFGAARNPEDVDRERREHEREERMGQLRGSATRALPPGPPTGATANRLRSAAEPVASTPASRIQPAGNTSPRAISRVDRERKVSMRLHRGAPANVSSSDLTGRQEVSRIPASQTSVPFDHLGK
Chain of CK1δ (P48730 whole entry): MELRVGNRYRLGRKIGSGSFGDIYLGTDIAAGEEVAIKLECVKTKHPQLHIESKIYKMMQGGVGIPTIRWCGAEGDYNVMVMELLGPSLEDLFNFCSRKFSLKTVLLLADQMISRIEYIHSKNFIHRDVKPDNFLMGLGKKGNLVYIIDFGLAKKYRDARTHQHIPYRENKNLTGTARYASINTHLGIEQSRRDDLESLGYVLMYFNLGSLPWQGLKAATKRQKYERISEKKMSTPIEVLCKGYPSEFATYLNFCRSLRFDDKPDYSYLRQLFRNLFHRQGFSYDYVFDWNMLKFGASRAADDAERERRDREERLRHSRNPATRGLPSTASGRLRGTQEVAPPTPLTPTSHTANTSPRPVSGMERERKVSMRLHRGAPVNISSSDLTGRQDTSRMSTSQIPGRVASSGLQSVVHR

As for `CC(C)(C)NC(=O)N1CCn2nc(-c3cccc4cnccc34)c(C(N)=O)c2C1` [Compound 134, N^5-(tert-Butyl)-2-(isoquinolin-5-yl)-6,7-dihydropyrazolo[1,5-a] pyrazine-3,5(4H)-dicarboxamide], the IC50 at CK1δ (read-out: CK1δ IC50 range) and at CK1ε (read-out: CK1ε IC50 range) was 100 to 2000 nM throughout.

For `CC(C)(C)NC(=O)N1CCn2nc(-c3cccc(CNS(C)(=O)=O)c3)c(C(N)=O)c2C1` [Compound 135, N^5-(tert-Butyl)-2-(3-(methylsulfonamidomethyl)phenyl)-6,7-dihydropyrazolo [1,5-a]pyrazine-3,5(4H)-dicarboxamide], the IC50 on CK1δ (read-out: CK1δ IC50 range) and on CK1ε (read-out: CK1ε IC50 range) was 100 to 2000 nM each time.

With `CC(C)(C)NC(=O)N1CCn2nc(-c3cccc(S(N)(=O)=O)c3)c(C(N)=O)c2C1` [Compound 136, N^5-(tert-Butyl)-2-(3-sulfamoylphenyl)-6,7-dihydropyrazolo[1,5-a] pyrazine-3,5(4H)-dicarboxamide], the IC50 at CK1δ (read-out: CK1δ IC50 range) and on CK1ε (read-out: CK1ε IC50 range) was 100 to 2000 nM throughout.

As for `CC(C)(C)NC(=O)N1CCn2nc(-c3cccc(OC(F)(F)F)c3)c(C(N)=O)c2C1` [Compound 138, N^5-(tert-Butyl)-2-(3-(trifluoromethoxy)phenyl)-6,7-dihydropyrazolo[1,5-a] pyrazine-3,5(4H)-dicarboxamide], the IC50 on CK1δ (read-out: CK1δ IC50 range) and on CK1ε (read-out: CK1ε IC50 range) was 100 to 2000 nM each time.

`CC(C)(C)NC(=O)N1CCn2nc(-c3ccc(F)c(C(F)(F)F)c3)c(C(N)=O)c2C1` [Compound 139, N^5-(tert-Butyl)-2-(4-fluoro-3-(trifluoromethyl)phenyl)-6,7-dihydropyrazolo[1,5-a] pyrazine-3,5(4H)-dicarboxamide]: the IC50 was 10 to 100 nM on CK1δ (read-out: CK1δ IC50 range) and 100 to 2000 nM at CK1ε (read-out: CK1ε IC50 range).

For the compound `CC(C)(C)NC(=O)N1CCn2nc(-c3cc4ccccc4nc3Cl)c(C(N)=O)c2C1` [Compound 140, N^5-(tert-Butyl)-2-(2-chloroquinolin-3-yl)-6,7-dihydropyrazolo[1,5-a] pyrazine-3,5(4H)-dicarboxamide], the IC50 on CK1δ (read-out: CK1δ IC50 range) and at CK1ε (read-out: CK1ε IC50 range) was 100 to 2000 nM each time.

With `CC(C)(C)NC(=O)N1CCn2nc(-c3cccc(-c4ccccc4)c3)c(C(N)=O)c2C1` [Compound 141, 2-([1,1′-Biphenyl]-3-yl)-N^5-(tert-butyl)-6,7-dihydropyrazolo[1,5-a] pyrazine-3,5(4H)-dicarboxamide], the IC50 on CK1δ (read-out: CK1δ IC50 range) and on CK1ε (read-out: CK1ε IC50 range) was 100 to 2000 nM in each case.

As to `CC(C)(C)NC(=O)N1CCn2nc(-c3cncnc3)c(C(N)=O)c2C1` [Compound 142, N^5-(tert-Butyl)-2-(pyrimidin-5-yl)-6,7-dihydropyrazolo [1,5-a]pyrazine-3,5(4H)-dicarboxamide], the IC50 at CK1δ (read-out: CK1δ) was 894 nM; at CK1δ (read-out: CK1δ IC50 range), 100 to 2000 nM; at CK1ε (read-out: CK1ε IC50 range), 100 to 2000 nM.

With `CC(C)(C)NC(=O)N1CCn2nc(-c3ccc4cc[nH]c4c3)c(C(N)=O)c2C1` [Compound 143], the IC50 at CK1δ (read-out: CK1δ) was 4.2 nM; at CK1δ (read-out: CK1δ IC50 range), 0.01 to 10 nM; on CK1ε (read-out: CK1ε) it was 33.3 nM; at CK1ε (read-out: CK1ε IC50 range) it was 10 to 100 nM.

With `CC(C)(C)NC(=O)N1CCn2nc(-c3ccc(S(C)(=O)=O)cc3)c(C(N)=O)c2C1` [Compound 144, N^5-(tert-Butyl)-2-(4-(methylsulfonyl)phenyl)-6,7-dihydropyrazolo[1,5-a] pyrazine-3,5(4H)-dicarboxamide], the IC50 on CK1δ (read-out: CK1δ IC50 range) and on CK1ε (read-out: CK1ε IC50 range) was 100 to 2000 nM throughout.

As to `CC(C)(C)NC(=O)N1CCn2nc(-c3cn[nH]c3)c(C(N)=O)c2C1` [Compound 145, N^5-(tert-Butyl)-2-(1H-pyrazol-4-yl)-6,7-dihydropyrazolo[1,5-a] pyrazine-3,5(4H)-dicarboxamide], the IC50 on CK1δ (read-out: CK1δ) is 1050 nM; on CK1δ (read-out: CK1δ IC50 range), 100 to 2000 nM; on CK1ε (read-out: CK1ε), 1820 nM; at CK1ε (read-out: CK1ε IC50 range), 100 to 2000 nM.

For the compound `CC(C)(C)NC(=O)N1CCn2nc(-c3cnc(N4CCCC4)nc3)c(C(N)=O)c2C1` [Compound 146, N^5-(tert-Butyl)-2-(2-(pyrrolidin-1-yl)pyrimidin-5-yl)-6,7-dihydropyrazolo[1,5-a]pyrazine-3,5(4H)-dicarboxamide], the IC50 at CK1δ (read-out: CK1δ IC50 range) and on CK1ε (read-out: CK1ε IC50 range) was 100 to 2000 nM throughout.

Consider `CC(C)(C)NC(=O)N1CCn2nc(-c3cnc(N4CCOCC4)nc3)c(C(N)=O)c2C1` [Compound 147, N^5-(tert-Butyl)-2-(2-morpholinopyrimidin-5-yl)-6,7-dihydropyrazolo[1,5-a] pyrazine-3,5(4H)-dicarboxamide], for which the IC50 on CK1δ (read-out: CK1δ IC50 range) and at CK1ε (read-out: CK1ε IC50 range) was 100 to 2000 nM in each case.

Turning to `CC(C)(C)NC(=O)N1CCn2nc(-c3ccc4scnc4c3)c(C(N)=O)c2C1` [Compound 149, 2-(Benzo[d]thiazol-5-yl)-N^5-(tert-butyl)-6,7-dihydropyrazolo[1,5-a] pyrazine-3,5(4H)-dicarboxamide], the IC50 lay within 10 to 100 nM on CK1δ (read-out: CK1δ IC50 range) and 100 to 2000 nM at CK1ε (read-out: CK1ε IC50 range).

Turning to `CC(C)(C)NC(=O)N1CCn2nc(-c3cc(F)ccc3F)c(C(N)=O)c2C1` [Compound 151, N^5-(tert-Butyl)-2-(2,5-difluorophenyl)-6,7-dihydropyrazolo[1,5-a] pyrazine-3,5(4H)-dicarboxamide], the IC50 on CK1δ (read-out: CK1δ) was 122 nM; at CK1δ (read-out: CK1δ IC50 range), 100 to 2000 nM; at CK1ε (read-out: CK1ε), 179 nM; on CK1ε (read-out: CK1ε IC50 range), 100 to 2000 nM.

For the compound `Cn1cc(-c2nn3c(c2C(N)=O)CN(C(=O)NC(C)(C)C)CC3)cn1` [Compound 153, N^5-(tert-Butyl)-2-(1-methyl-1H-pyrazol-4-yl)-6,7-dihydropyrazolo[1,5-a] pyrazine-3,5(4H)-dicarboxamide], the IC50 on CK1δ (read-out: CK1δ IC50 range) and at CK1ε (read-out: CK1ε IC50 range) was 100 to 2000 nM each time.

In the case of `CC(C)(C)NC(=O)N1CCn2nc(-c3cc(Cl)cc(C#N)c3)c(C(N)=O)c2C1` [Compound 154, N^5-(tert-Butyl)-2-(3-chloro-5-cyanophenyl)-6,7-dihydropyrazolo[1,5-a] pyrazine-3,5(4H)-dicarboxamide], the IC50 on CK1δ (read-out: CK1δ) is 24.3 nM; at CK1δ (read-out: CK1δ IC50 range) it was 10 to 100 nM; at CK1ε (read-out: CK1ε), 27.7 nM; on CK1ε (read-out: CK1ε IC50 range) it was 10 to 100 nM.

On to `CC(C)(C)NC(=O)N1CCn2nc(-c3cc(F)cc(C(F)(F)F)c3)c(C(N)=O)c2C1` [Compound 155, N^5-(tert-Butyl)-2-(3-fluoro-5-(trifluoromethyl)phenyl)-6,7-dihydropyrazolo[1,5-a] pyrazine-3,5(4H)-dicarboxamide], for which the IC50 at CK1δ (read-out: CK1δ IC50 range) and at CK1ε (read-out: CK1ε IC50 range) was 100 to 2000 nM each time.

In the case of `N#Cc1ccc(NC(=O)N2CCn3nc(-c4cccc(Cl)c4)c(C(N)=O)c3C2)cc1C(F)(F)F` [Compound 159, 2-(3-Chlorophenyl)-N^5-(4-cyano-3-(trifluoromethyl)phenyl)-6,7-dihydropyrazolo [1,5-a]pyrazine-3,5(4H)-dicarboxamide], the IC50 on CK1δ (read-out: CK1δ IC50 range) and at CK1ε (read-out: CK1ε IC50 range) was 0.01 to 10 nM each time.

`NC(=O)c1c(-c2cccc(Cl)c2)nn2c1CN(C(=O)Nc1ccc(OC(F)(F)F)cc1)CC2` [Compound 162, 2-(3-Chlorophenyl)-N^5-(4-(trifluoromethoxy)phenyl)-6,7-dihydropyrazolo[1,5-a]pyrazine-3,5(4H)-dicarboxamide]: the IC50 at CK1δ (read-out: CK1δ IC50 range) and at CK1ε (read-out: CK1ε IC50 range) was 0.01 to 10 nM each time.

Turning to `N#Cc1ccc(NC(=O)N2CCn3nc(-c4cccc(Cl)c4)c(C(N)=O)c3C2)cc1` [Compound 166, 2-(3-Chlorophenyl)-N^5-(4-cyanophenyl)-6,7-dihydropyrazolo[1,5-a]pyrazine-3,5(4H)-dicarboxamide], the IC50 was 0.3 nM at CK1δ (read-out: CK1δ), 0.01 to 10 nM at CK1δ (read-out: CK1δ IC50 range), 0.3 nM at CK1ε (read-out: CK1ε) and 0.01 to 10 nM at CK1ε (read-out: CK1ε IC50 range).

Turning to `NC(=O)c1c(-c2cccc(Cl)c2)nn2c1CN(C(=O)Nc1ccc(C(F)(F)F)cc1)CC2` [Compound 168, 2-(3-Chlorophenyl)-N^5-(4-(trifluoromethyl)phenyl)-6,7-dihydropyrazolo[1,5-a]pyrazine-3,5(4H)-dicarboxamide], the IC50 at CK1δ (read-out: CK1δ IC50 range) and at CK1ε (read-out: CK1ε IC50 range) was 0.01 to 10 nM throughout.

Turning to `CC(C)(NC(=O)N1CCn2nc(-c3cccc(Cl)c3)c(C(N)=O)c2C1)C(F)F` [Compound 172, 2-(3-Chlorophenyl)-N^5-(1,1-difluoro-2-methylpropan-2-yl)-6,7-dihydropyrazolo[1,5-a] pyrazine-3,5(4H)-dicarboxamide], the IC50 on CK1δ (read-out: CK1δ IC50 range) and on CK1ε (read-out: CK1ε IC50 range) was 0.01 to 10 nM each time.

On to `CC(C)(NC(=O)N1CCn2nc(-c3cccc(Cl)c3)c(C(N)=O)c2C1)c1ccc(C#N)cc1` [Compound 173, 2-(3-Chlorophenyl)-N^5-(2-(4-cyanophenyl)propan-2-yl)-6,7-dihydropyrazolo[1,5-a] pyrazine-3,5(4H)-dicarboxamide], for which the IC50 at CK1δ (read-out: CK1δ IC50 range) and at CK1ε (read-out: CK1ε IC50 range) was 0.01 to 10 nM throughout.

As for `NC(=O)c1c(-c2cccc(Cl)c2)nn2c1CN(C(=O)N[C@H]1C[C@H](F)C1)CC2` [Compound 175, 2-(3-Chlorophenyl)-N^5-((1r,3r)-3-fluorocyclobutyl)-6,7-dihydropyrazolo[1,5-a] pyrazine-3,5(4H)-dicarboxamide], the IC50 at CK1δ (read-out: CK1δ IC50 range) and at CK1ε (read-out: CK1ε IC50 range) was 0.01 to 10 nM each time.

As for `NC(=O)c1c(-c2cccc(Cl)c2)nn2c1CN(C(=O)N[C@H]1C[C@@H](F)C1)CC2` [Compound 176, 2-(3-Chlorophenyl)-N^5-((1s,3s)-3-fluorocyclobutyl)-6,7-dihydropyrazolo[1,5-a] pyrazine-3,5(4H)-dicarboxamide], the IC50 on CK1δ (read-out: CK1δ IC50 range) and at CK1ε (read-out: CK1ε IC50 range) was 0.01 to 10 nM throughout.

As for `CO[C@H]1C[C@@H](NC(=O)N2CCn3nc(-c4cccc(Cl)c4)c(C(N)=O)c3C2)C1` [Compound 177, 2-(3-Chlorophenyl)-N^5-((1s,3s)-3-methoxycyclobutyl)-6,7-dihydropyrazolo[1,5-a] pyrazine-3,5(4H)-dicarboxamide], the IC50 on CK1δ (read-out: CK1δ IC50 range) and on CK1ε (read-out: CK1ε IC50 range) was 0.01 to 10 nM in each case.
